Five compounds from patent publication US8822517B2, “Arylosulfonamides for the treatment of CNS diseases” (Adamed SP. Z O.O., priority 2010, dated 2014) can be followed below.

Structures are written as SMILES.

For assay [1], the target named is serotoninergic 5-HT6 receptor (Homo sapiens, UniProt P50406). Description: Cellular functional assay, serotoninergic 5-HT6 receptor (agonism/antagonism). Type of assay: cell-based. The following applies: for activation at 1 µM: agonist effect, percent of control specific agonist response, compounds tested at 1×10^−6M, read-out: 5-HT6-ag [%]; for inhibition at 1 µM: read-out: 5-HT6-antag. [%]. How it is done:
(§1) The compounds were tested at the concentration of 1×10^−6M.
(§2) In the Tables ag refers to agonism, and antag to antagonism).

For assay [2], the target named is T1, dopaminergic D2 receptor (Homo sapiens, UniProt P14416). As to the kind of experiment: Cellular functional assay, dopaminergic D2 receptor (agonism/antagonism). Type of assay: cell-based. The conditions noted are these: HEK293; for activation at 1 µM: agonist effect, percent of control specific agonist response (3 μM dopamine for control), 1×10^−6 M, D2S (h), HEK-293 cells, read-out: D2-ag [%]; for inhibition at 1 µM: read-out: D2-antag. [%]. How it is done: as §1, §2
Target sequence in this assay (P14416 whole entry): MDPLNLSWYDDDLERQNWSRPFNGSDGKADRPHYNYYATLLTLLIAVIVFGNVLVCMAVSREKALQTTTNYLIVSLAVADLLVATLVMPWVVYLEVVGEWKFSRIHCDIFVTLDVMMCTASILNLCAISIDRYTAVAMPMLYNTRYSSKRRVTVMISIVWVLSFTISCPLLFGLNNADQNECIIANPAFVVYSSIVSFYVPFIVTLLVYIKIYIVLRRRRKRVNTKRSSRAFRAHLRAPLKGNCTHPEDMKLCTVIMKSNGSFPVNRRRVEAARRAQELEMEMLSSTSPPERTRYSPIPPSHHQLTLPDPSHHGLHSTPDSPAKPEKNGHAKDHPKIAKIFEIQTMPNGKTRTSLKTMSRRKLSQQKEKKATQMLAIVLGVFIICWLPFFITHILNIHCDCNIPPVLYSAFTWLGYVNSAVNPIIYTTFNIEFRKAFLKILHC

Assay [3] addresses T1, dopaminergic D2 receptor. Description: Binding assay D2S (h), [3H]methyl-spiperone, HEK-293 cells. Set-up: expressed in transfected cells; host or cells: HEK-293 cells. The following applies: read-out: D2 [%]. The gist of the method: (§3)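 Test conc. 1×10^−6 M. Read-out by scintillation counting. Specific = total − nonspecific (excess cold ligand).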
Target sequence in this assay (P14416 1-414 isoform P14416-2): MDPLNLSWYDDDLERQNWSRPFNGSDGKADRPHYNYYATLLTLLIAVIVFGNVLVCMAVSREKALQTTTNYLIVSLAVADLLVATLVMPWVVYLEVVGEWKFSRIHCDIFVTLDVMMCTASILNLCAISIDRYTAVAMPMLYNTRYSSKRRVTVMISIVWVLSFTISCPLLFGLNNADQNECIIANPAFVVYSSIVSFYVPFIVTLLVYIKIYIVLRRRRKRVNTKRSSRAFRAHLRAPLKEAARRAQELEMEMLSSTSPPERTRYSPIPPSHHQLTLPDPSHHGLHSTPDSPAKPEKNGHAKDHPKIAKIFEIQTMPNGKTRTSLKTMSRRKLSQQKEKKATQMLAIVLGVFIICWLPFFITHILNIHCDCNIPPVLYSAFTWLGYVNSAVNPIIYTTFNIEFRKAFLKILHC
For assay [4], the target named is histaminergic H1 receptor (Homo sapiens, UniProt P35367). Description: Cellular functional assay, histaminergic H1 receptor (agonism/antagonism). Type of assay: cell-based. The following applies: for activation at 1 µM: agonist effect, percent of control specific agonist response, compounds tested at 1×10^−6M, read-out: H1 -ag [%]; for inhibition at 1 µM: read-out: H1 -antag. [%]. How it is done:
as §1, §2

The target in assay [5] is T2, adrenergic α2C receptor (Homo sapiens, UniProt P18825).
T2 sequence (P18825 1-462): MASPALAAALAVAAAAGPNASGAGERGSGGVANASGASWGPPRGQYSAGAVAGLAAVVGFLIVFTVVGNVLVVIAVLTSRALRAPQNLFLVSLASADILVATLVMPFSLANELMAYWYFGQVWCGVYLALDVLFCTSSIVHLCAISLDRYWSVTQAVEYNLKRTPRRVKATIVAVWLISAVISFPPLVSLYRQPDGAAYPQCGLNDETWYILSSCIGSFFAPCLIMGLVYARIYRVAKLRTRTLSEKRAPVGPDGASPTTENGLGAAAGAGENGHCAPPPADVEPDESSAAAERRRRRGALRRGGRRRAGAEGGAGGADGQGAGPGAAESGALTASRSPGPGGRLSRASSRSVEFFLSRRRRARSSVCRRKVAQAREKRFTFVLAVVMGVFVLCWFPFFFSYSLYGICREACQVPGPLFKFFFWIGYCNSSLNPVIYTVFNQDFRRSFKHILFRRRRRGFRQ
Description: Binding assay α2C (h), [3H]RX 821002, CHO cells. The conditions noted are these: read-out: α2C [%]. Set-up: expressed in transfected cells; host or cells: CHO cells. The gist of the method: as §3

Assay [6] addresses T3, serotonine transporter (SERT) receptor (Homo sapiens, UniProt P31645).
T3 construct: expressed in transfected cells; host or cells: CHO cells
Description: Binding assay SERT (h), [3H]imipramine, CHO cells. The conditions noted are these: read-out: SERT [%]. The gist of the method: as §3

Assay [7] concerns the target T4, serotoninergic 5-HT2A receptor (Homo sapiens, UniProt P28223). As to the kind of experiment: Binding assay 5-HT2A (h), [3H]ketanserin, HEK-293 cells. Set-up: expressed in transfected cells; host or cells: HEK-293 cells. The following applies: read-out: 5-HT2A. The gist of the method:
as §3

The target in the next assay is T5, muscarinic M3 receptor (Homo sapiens, UniProt P20309).
T5 construct: expressed in transfected cells; host or cells: CHO cells
Description: Binding assay M3 (h), [3H]4-DAMP, CHO cells. The following applies: read-out: M3 [%]. The essentials:
as §3

For assay [8], the target named is T4, serotoninergic 5-HT2A receptor. Description: Cellular functional assay, serotoninergic 5-HT2A receptor (agonism/antagonism). Type of assay: cell-based. The following applies: for activation at 1 µM: read-out: 5-HT2A -ag [%]; for inhibition at 1 µM: read-out: 5-HT2A -antag [%]. The gist of the method: (§4)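 Human receptors tested in cell-based functional format for both agonist and antagonist modes. Single compound concentration of 1×10^−6M.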

The target of another assay is T6, adrenergic α1A receptor (Homo sapiens, UniProt P35348).
T6 sequence (P35348 1-466): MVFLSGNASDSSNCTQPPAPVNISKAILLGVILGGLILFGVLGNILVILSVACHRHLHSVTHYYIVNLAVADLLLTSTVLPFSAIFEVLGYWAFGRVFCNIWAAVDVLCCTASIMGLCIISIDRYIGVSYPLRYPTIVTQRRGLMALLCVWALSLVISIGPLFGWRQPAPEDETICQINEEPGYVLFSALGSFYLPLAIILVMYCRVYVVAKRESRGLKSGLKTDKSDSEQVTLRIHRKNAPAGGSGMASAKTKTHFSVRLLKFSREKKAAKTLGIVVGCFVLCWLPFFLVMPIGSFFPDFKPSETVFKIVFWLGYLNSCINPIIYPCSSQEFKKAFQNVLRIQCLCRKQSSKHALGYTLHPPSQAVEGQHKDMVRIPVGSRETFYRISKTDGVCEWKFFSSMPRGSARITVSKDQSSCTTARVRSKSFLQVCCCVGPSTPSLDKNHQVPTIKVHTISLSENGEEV
Description: Cellular functional assay, adrenergic α1A receptor (agonism/antagonism). Type of assay: cell-based. The following applies: for activation at 1 µM: agonist effect, percent of control specific agonist response, compounds tested at 1×10^−6M, read-out: α1A -ag [%]; for inhibition at 1 µM: read-out: α1A -antag. [%]. The gist of the method:
as §4

In assay [9] the target is serotoninergic 5-HT7 receptor (Homo sapiens, UniProt P34969). As to the kind of experiment: Cellular functional assay, serotoninergic 5-HT7 receptor (agonism/antagonism). Type of assay: cell-based. The conditions noted are these: for activation at 1 µM: agonist effect, percent of control specific agonist response, compounds tested at 1×10^−6M, read-out: 5-HT7-ag [%]; for inhibition at 1 µM: read-out: 5-HT7-antag. [%]. How it is done: as §1, §2

The next assay concerns the target dopaminergic D3 receptor (Homo sapiens, UniProt P35462). Description: Cellular functional assay, dopaminergic D3 receptor (agonism/antagonism). Type of assay: cell-based. The following applies: for inhibition at 1 µM: CHO, read-out: D3-antag. [%]; for activation at 1 µM: agonist effect, percent of control specific agonist response (300 nM dopamine for control), 1×10^−6 M, D3 (h), CHO cells, read-out: D3-ag [%]. How it is done:
as §1, §2

Assay [10] addresses T2, adrenergic α2C receptor. As to the kind of experiment: Cellular functional assay, adrenergic α2C receptor (agonism/antagonism). Type of assay: cell-based. The following applies: for activation at 1 µM: agonist effect, percent of control specific agonist response, compounds tested at 1×10^−6M, read-out: α2C −ag [%]; for inhibition at 1 µM: read-out: α2C −antag. [%]. How it is done: as §1, §2

Chain of serotoninergic 5-HT7 receptor (P34969 whole entry): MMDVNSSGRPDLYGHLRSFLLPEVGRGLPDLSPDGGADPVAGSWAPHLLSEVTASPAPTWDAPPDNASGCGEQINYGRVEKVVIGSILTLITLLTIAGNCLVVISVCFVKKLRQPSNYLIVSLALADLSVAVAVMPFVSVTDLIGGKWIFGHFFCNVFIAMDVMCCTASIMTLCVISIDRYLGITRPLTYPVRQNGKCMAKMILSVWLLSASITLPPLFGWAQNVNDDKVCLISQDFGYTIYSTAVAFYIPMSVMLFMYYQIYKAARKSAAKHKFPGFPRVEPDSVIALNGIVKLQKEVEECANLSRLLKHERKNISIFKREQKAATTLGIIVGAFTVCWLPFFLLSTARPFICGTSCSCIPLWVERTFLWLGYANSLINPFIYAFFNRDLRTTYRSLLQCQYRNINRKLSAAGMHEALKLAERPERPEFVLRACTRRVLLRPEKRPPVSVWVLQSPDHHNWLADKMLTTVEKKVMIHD
Chain of dopaminergic D3 receptor (P35462 whole entry): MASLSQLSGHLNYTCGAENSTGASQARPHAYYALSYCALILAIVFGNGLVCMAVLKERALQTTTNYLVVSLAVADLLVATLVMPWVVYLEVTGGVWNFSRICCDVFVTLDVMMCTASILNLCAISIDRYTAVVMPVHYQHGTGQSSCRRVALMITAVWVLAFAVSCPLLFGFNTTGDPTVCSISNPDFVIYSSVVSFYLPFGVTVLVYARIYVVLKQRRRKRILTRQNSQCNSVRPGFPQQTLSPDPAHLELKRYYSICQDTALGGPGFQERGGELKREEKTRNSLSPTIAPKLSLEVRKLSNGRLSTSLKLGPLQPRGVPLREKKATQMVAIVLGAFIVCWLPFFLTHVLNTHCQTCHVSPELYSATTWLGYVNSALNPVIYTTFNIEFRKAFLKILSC
Chain of serotoninergic 5-HT6 receptor (P50406 whole entry): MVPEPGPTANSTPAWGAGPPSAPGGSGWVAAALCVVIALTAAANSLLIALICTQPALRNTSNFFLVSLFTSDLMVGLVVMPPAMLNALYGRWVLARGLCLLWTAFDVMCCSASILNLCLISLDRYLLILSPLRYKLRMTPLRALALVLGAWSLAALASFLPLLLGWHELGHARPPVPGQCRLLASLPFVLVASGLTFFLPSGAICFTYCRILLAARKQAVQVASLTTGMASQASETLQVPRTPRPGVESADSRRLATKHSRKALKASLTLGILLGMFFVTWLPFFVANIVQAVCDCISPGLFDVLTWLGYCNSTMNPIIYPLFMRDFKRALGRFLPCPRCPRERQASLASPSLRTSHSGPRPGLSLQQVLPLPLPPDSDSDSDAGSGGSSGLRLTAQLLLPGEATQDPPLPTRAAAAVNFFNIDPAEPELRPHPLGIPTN
T5 sequence (P20309 whole entry): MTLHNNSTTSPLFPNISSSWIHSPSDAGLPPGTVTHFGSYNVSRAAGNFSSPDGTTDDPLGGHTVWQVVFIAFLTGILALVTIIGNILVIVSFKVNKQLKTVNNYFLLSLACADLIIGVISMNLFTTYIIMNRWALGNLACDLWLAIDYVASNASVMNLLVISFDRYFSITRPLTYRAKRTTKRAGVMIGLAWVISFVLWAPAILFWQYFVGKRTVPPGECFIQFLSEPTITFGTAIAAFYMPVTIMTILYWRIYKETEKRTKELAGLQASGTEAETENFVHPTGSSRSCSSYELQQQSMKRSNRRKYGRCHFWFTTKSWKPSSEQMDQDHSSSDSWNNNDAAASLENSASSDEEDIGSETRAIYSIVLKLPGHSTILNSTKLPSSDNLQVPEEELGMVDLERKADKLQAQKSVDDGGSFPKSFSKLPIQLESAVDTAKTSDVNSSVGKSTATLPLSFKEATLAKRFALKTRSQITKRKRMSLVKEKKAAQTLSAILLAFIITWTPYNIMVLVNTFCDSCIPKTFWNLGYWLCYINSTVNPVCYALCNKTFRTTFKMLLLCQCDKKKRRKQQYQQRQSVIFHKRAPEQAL
Chain of histaminergic H1 receptor (P35367 whole entry): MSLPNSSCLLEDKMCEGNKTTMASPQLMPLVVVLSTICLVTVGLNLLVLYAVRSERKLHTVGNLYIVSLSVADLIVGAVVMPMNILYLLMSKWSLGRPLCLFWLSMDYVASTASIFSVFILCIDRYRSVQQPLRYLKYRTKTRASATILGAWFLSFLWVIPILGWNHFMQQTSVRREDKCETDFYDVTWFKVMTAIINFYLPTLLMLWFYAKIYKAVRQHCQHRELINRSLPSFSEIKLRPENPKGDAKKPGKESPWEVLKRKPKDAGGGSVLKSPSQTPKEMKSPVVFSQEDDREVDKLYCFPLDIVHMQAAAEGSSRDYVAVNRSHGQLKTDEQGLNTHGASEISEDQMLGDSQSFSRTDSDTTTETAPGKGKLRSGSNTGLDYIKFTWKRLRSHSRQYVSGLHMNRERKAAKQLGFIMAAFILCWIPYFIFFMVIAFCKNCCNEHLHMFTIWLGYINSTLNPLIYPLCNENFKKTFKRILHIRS
T3 sequence (P31645 whole entry): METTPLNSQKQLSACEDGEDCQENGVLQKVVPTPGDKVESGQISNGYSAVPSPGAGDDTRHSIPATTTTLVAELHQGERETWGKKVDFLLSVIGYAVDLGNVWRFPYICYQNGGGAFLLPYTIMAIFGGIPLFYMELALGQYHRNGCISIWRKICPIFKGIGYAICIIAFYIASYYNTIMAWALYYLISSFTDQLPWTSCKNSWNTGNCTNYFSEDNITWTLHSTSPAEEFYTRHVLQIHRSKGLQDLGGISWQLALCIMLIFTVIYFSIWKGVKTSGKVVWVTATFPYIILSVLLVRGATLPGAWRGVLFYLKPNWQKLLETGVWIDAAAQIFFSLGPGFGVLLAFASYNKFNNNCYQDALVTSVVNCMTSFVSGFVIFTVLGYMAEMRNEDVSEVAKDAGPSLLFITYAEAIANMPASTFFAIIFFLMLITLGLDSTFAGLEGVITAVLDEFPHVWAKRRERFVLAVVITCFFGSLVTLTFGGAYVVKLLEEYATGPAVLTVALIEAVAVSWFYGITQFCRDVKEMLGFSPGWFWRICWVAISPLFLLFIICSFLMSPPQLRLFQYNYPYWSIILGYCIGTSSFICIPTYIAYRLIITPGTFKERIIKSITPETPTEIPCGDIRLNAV
T4 sequence (P28223 whole entry): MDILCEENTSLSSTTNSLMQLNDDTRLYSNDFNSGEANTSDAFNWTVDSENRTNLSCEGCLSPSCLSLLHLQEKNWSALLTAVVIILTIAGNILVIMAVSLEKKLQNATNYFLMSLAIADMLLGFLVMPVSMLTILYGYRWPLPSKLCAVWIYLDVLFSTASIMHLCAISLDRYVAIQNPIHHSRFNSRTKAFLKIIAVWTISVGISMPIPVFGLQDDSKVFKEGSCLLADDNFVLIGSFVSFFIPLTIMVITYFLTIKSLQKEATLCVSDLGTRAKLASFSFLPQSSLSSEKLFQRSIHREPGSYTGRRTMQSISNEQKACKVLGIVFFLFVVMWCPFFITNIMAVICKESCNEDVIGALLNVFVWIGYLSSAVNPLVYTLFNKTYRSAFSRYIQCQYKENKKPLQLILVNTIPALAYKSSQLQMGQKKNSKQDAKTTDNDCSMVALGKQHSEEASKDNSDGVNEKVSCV

As to `O=S(=O)(NCCCCN1CCC(c2noc3cc(F)ccc23)CC1)c1ccc2cc(Cl)ccc2c1` [Compound 97, 6-Chloro-N-[4-[4-(6-fluoro-1,2-benzoxazol-3-yl)piperidin-1-yl]butyl]naphthalene-2-sulphonamide], the activation at 1 µM in [1] is -2%; at dopaminergic D2 receptor [2], 4%; in [4] it was 3%; in assay [8], -3%; at adrenergic α1A receptor it was 0%; in [9], -2%. In addition, the activation at 1 µM at dopaminergic D3 receptor is -23%; on adrenergic α2C receptor [10], -4%. For the same compound, the inhibition at 1 µM in assay [1] came to 95%; on dopaminergic D2 receptor [2], 95%; on dopaminergic D2 receptor [3], 100%; in [4] it was 57%; at adrenergic α2C receptor [5] it was 100%; in assay [6] it was 61%. Besides, the inhibition at 1 µM in assay [7] is 100%; at muscarinic M3 receptor it was 16%; in assay [8], 102%; at adrenergic α1A receptor, 99%; in assay [9] it was 100%; on dopaminergic D3 receptor, 87%. On adrenergic α2C receptor [10], the inhibition at 1 µM was 36%.
For `O=S(=O)(NCCCCN1CCN(c2nsc3ccccc23)CC1)c1cc2ccc(Cl)cc2s1` [Compound 241, N-[4-[4-(1,2-Benzothiazol-3-yl)piperazin-1-yl]butyl]-6-chlorobenzothiophene-2-sulphonamide], the activation at 1 µM in [1] is 0%; on dopaminergic D2 receptor [2] it was 6%; in assay [4], 1%; in assay [8], -2%; on adrenergic α1A receptor it was 0%; in [9], -2%. Besides, the activation at 1 µM on dopaminergic D3 receptor was 7%; on adrenergic α2C receptor [10] it was -1%. Also, the inhibition at 1 µM in assay [1] amounted to 69%; on dopaminergic D2 receptor [2], 82%; on dopaminergic D2 receptor [3], 100%; in [4], 47%; at adrenergic α2C receptor [5], 98%; in assay [6], 50%. In addition, the inhibition at 1 µM in assay [7] worked out at 101%; on muscarinic M3 receptor, 4%; in [8] it was 99%; at adrenergic α1A receptor it was 95%; in assay [9], 83%; on dopaminergic D3 receptor, 78%. On adrenergic α2C receptor [10], the inhibition at 1 µM amounted to 14%.
Consider `N#Cc1cccc(S(=O)(=O)NCCCN2CCC(c3noc4cc(F)ccc34)CC2)c1` [Compound 338, 3-cyano-N-[3-[4-(6-fluoro-1,2-benzoxazol-3-yl)piperidin-1-yl]propyl]benzenesulphonamide], for which the activation at 1 µM in [1] is 0%; on dopaminergic D2 receptor [2], 3%; in assay [4], 1%; in assay [8] it was -1%; on adrenergic α1A receptor, 2%; in assay [9], -3%. The activation at 1 µM at dopaminergic D3 receptor was -10%; on adrenergic α2C receptor [10] it was -3%. In addition, the inhibition at 1 µM in assay [1] was 88%; at dopaminergic D2 receptor [2] it was 88%; on dopaminergic D2 receptor [3], 98%; in assay [4], 51%; at adrenergic α2C receptor [5], 104%; in assay [6] it was 21%. Moreover, the inhibition at 1 µM in [7] was 102%; at muscarinic M3 receptor, 1%; in assay [8] it was 100%; at adrenergic α1A receptor, 100%; in assay [9], 100%; at dopaminergic D3 receptor it was 109%. Besides, the inhibition at 1 µM on adrenergic α2C receptor [10] is 9%.
`O=S(=O)(NCCCCN1CCN(c2nsc3ccccc23)CC1)c1cccc2ccccc12` [Compound 1, N-(4-(4-(1,2-Benzothiazol-3-yl)piperazin-1-yl)butyl)naphthalene-1-sulphonamide]: the activation at 1 µM is 1% in [1]; -1% at dopaminergic D2 receptor [2]; 0% in assay [4]; 0% in assay [8]; 0% on adrenergic α1A receptor; -1% in [9]. Also, the activation at 1 µM was -17% at dopaminergic D3 receptor and -9% on adrenergic α2C receptor [10]. For the same compound, the inhibition at 1 µM is 39% in assay [1]; 95% at dopaminergic D2 receptor [2]; 97% at dopaminergic D2 receptor [3]; 51% in assay [4]; 100% on adrenergic α2C receptor [5]; 49% in assay [6]. The inhibition at 1 µM in assay [7] is 99%; on muscarinic M3 receptor, 13%; in [8] it was 99%; at adrenergic α1A receptor, 100%; in assay [9], 97%; on dopaminergic D3 receptor it was 49%. The inhibition at 1 µM on adrenergic α2C receptor [10] was 7%.
For the compound `O=S(=O)(NCCCCN1CCN(c2nsc3ccccc23)CC1)c1ccc2cc(Cl)ccc2c1` [Compound 61, N-[4-[4-(1,2-Benzothiazol-3-yl)piperazin-1-yl]butyl]-6-chloro-naphthalene-2-sulphonamide], the activation at 1 µM in assay [1] is -2%; on dopaminergic D2 receptor [2] it was 4%; in assay [4] it was 1%; in [8], 0%; on adrenergic α1A receptor, 0%; in assay [9], -1%. Also, the activation at 1 µM amounted to 4% at dopaminergic D3 receptor and 1% on adrenergic α2C receptor [10]. In addition, the inhibition at 1 µM in assay [1] was found to be 72%; at dopaminergic D2 receptor [2] it was 77%; at dopaminergic D2 receptor [3] it was 100%; in [4] it was 76%; at adrenergic α2C receptor [5], 101%; in assay [6], 55%. Also, the inhibition at 1 µM in [7] came out at 100%; on muscarinic M3 receptor it was 5%; in assay [8], 97%; on adrenergic α1A receptor, 100%; in [9] it was 78%; on dopaminergic D3 receptor, 45%. The inhibition at 1 µM on adrenergic α2C receptor [10] was 18%.
